Assay results: US12473310B2, “Vitamin D3 phosphate and pharmaceutically acceptable salts thereof, pharmaceutical compositions comprising the compound and methods for preparing the compound” (King's College London, priority 2020, dated 2025)
Counter-ions that a name gives are not always drawn.

Tests used:
[1] = physchem; format: physicochemical; details: 22 °C, organic solvent or mixture, thermodynamic from solid, HPLC
Description: An aliquot of 2.5 mg cholecalciferol and 2.5 mg cholecalciferol phosphate disodium salt prepared according to Example 1 were weighed into glass vials and 100 μL aliquots of the test solvents with different dielectric constants; water, MeOH:water (90:10), ethylene glycol, methanol (MeOH), propylene glycol (PG), ethanol (EtOH), poly(ethylene glycol) (PEG-400), and mineral oil were added until the sample was fully dissolved visually. A precise determination of the solubility was undertaken using high-performance liquid chromatography (HPLC). In the HPLC solubility studies an excess amount of cholecalciferol and cholecalciferol phosphate was added into 2 mL of each test solvent; water, MeOH:water (90:10), MeOH, and PG, EtOH and mineral oil. The solutions were left stirring overnight at room temperature, (RT), 22° C. The saturation of the solutions was confirmed by the visual appearance of crystals and the drug suspensions were filtered through 0.2 μm syringe filters, diluted, and the concentration of each sample was assessed using the HPLC method detailed below.
HPLC analysis was conducted using an HPLC system consisting of an auto-sample injector (Jasco AS-4050, Japan), a pump (Jasco PU-4180, Japan), and a photodiode array detector (Jasco MD-4017, Japan). The data was collected and analysed using the ChromNAV software. […]

[2] = patch pre-formulation, saturated concentration in adhesive; format: physicochemical; details: DURO-TAK 87-2051 adhesive; phosphate disodium salt
Description: To each solution, 175 μL of the transdermal adhesive DURO-TAK 87-2051 (51.5 w/v %) was added, and vortexed. Then 2.0 μL of α-tocopherol and 2.5 μL of diethylene glycol monoethyl ether were added and vortexed. The visual solubility was assessed.
To this solution 4 mg of α-tocopherol in 3 mL ethyl acetate was added and 167 μL of the transdermal adhesive DURO-TAK 87-2051 (51.5 w/v %) in 7 mL ethyl acetate with 6 μL diethylene glycol monoethyl ether was also added.
Each solution (3×3 cm) was cast onto the backing (3M™ Scotchpak™ Polyester Backing Film Laminate 9730, UK) to determine the clarity, and the saturation limit of the test agents in the adhesive mixtures.

[3] = solubility of disodium salt in water by HPLC; format: physicochemical; details: thermodynamic from solid, distilled water
Description: Cholecalciferol phosphate disodium salt was added into 1.5 mL distilled water until it generated precipitation. The supersaturated solution was filtered into a glass bottle through a 0.45 μm syringe filter, diluted in water (1:100), then MeOH was added to make MeOH:water (90:10), and injected into the HPLC.

[4] = chemical stability on storage over 4 weeks; format: physicochemical
Description: The chemical stability of cholecalciferol phosphate acid/disodium salt was assessed in three different conditions over a 4-week period. Aliquots of 2 mg for each sample was stored at room temperature, 4° C., and −20° C. in a glass bottle covered with foil. A 20 mL sample of MeOH and MeOH:water (90:10) was added to cholecalciferol phosphate acid and cholecalciferol phosphate disodium salt, and the concentration and purity were assessed every week by the HPLC method described previously. The peak area was used to calculate sample concentration and the gradient of the data points being used to calculate the degradation rate.

[5] = parameters: species or system porcine
Description: To verify the percentage of drug that could be recovered from each layer of the skin, each layer was isolated for a 2.19±0.21 cm^2 piece of skin, the drug was spiked into each layer, it was incubated and then recovered. For the SC tape stripping as described above was used to isolate the skin layer. A total of 20 pieces of tape were used to remove the SC and these strips were added into sample bottles. The epidermis was removed from the dermis, cut into small pieces, and placed into bottles. The test solutions were spiked (500 μL) into a sample bottle containing the SC and (200 μL) into the sample bottles containing the epidermis and dermis. The samples containing the spiked drugs were left for 1 h for the drugs to absorb into the tissues. After the 1 h incubation period, 10 mL of extraction fluid (PG:EtOH, 50:50 for cholecalciferol and MeOH:water, 90:10 for cholecalciferol phosphate) was added into SC, and 2 mL of extraction fluid was added into epidermis and dermis then incubated in a shaking water bath overnight at 32° C. The solutions with both epidermis and dermis were then homogenised by Ultra Turrax for 1 min and filtered using 0.2 μm syringe filters and analysed by HPLC method.

SMILES | solubility [1] [mg/mL] | saturated concentration in patch formulation (highest loading without precipitation) [2] [w/w %] | solubility [3] [mg/mL] | change of purity over 4 weeks ([4]; all storage conditions) | degradation over 4 weeks ([4]; room temperature, 4° C. and −20° C.) | % Recovery, drug extraction validation, Epidermis [5] [%]
C=C1CC[C@H](OP(=O)(O)O)C/C1=C/C=C1\CCC[C@@]2(C)C1CC[C@@H]2[C@H](C)CCCC(C)C (stereo partly drawn) [Cholecalciferol phosphate disodium salt, cholecalciferol phosphate disodium salt] | 3.7 | 13.57 | 78.7 | less than 1% | did not degrade at any of the storage conditions | 
C=C1CC[C@H](O)C/C1=C/C=C1\CCC[C@]2(C)[C@@H]([C@H](C)CCCC(C)C)CC[C@@H]12 [Cholecalciferol, cholecalciferol, reference compound] |  |  |  |  |  | 104.86 ± 0.54
